Key:
[1] = tested on: HMEC; test: Inhibition of VEGF-mediated proliferation of HMVEC; format: functional, cell-based; settings: Homo sapiens
[2] = target: Platelet-derived growth factor receptor beta (Mus musculus, UniProt P05622); test: Inhibition of PDGFRbeta
[3] = target: Vascular endothelial growth factor receptor 2 (Mus musculus, UniProt P35918); test: Inhibition of VEGFR2
[4] = target: Fibroblast growth factor receptor 1 (Homo sapiens, UniProt P11362); test: Inhibition of FGFR1
[5] = target: Vascular endothelial growth factor receptor 1 (Homo sapiens, UniProt P17948); test: Inhibition of VEGFR1
[6] = Volume of distribution in mouse; format: ADME, organism-based; settings: in vivo, read-out: Vdss
[7] = tested on: KM12; test: Antitumor activity against human KM12L4a cell line xenografted in nude mice at 100 mg/kg, after 14 days; format: functional; settings: Mus musculus, KM12, 336 h, read-out: TGI
[8] = Clearance in mouse; format: ADME, organism-based; settings: in vivo
[9] = tested on: KM12; test: Antitumor activity against human KM12L4a cell line xenografted in nude mice at 30 mg/kg, after 14 days; format: functional; settings: Mus musculus, KM12, 336 h, read-out: TGI
[10] = species: Mus musculus; test: Area under curve in mouse; format: ADME, organism-based; settings: in vivo
[11] = Oral bioavailability in mouse; format: ADME, organism-based; settings: in vivo
[12] = Half life in mouse; format: ADME, organism-based; settings: in vivo

Sequence of Platelet-derived growth factor receptor beta (P05622 whole entry): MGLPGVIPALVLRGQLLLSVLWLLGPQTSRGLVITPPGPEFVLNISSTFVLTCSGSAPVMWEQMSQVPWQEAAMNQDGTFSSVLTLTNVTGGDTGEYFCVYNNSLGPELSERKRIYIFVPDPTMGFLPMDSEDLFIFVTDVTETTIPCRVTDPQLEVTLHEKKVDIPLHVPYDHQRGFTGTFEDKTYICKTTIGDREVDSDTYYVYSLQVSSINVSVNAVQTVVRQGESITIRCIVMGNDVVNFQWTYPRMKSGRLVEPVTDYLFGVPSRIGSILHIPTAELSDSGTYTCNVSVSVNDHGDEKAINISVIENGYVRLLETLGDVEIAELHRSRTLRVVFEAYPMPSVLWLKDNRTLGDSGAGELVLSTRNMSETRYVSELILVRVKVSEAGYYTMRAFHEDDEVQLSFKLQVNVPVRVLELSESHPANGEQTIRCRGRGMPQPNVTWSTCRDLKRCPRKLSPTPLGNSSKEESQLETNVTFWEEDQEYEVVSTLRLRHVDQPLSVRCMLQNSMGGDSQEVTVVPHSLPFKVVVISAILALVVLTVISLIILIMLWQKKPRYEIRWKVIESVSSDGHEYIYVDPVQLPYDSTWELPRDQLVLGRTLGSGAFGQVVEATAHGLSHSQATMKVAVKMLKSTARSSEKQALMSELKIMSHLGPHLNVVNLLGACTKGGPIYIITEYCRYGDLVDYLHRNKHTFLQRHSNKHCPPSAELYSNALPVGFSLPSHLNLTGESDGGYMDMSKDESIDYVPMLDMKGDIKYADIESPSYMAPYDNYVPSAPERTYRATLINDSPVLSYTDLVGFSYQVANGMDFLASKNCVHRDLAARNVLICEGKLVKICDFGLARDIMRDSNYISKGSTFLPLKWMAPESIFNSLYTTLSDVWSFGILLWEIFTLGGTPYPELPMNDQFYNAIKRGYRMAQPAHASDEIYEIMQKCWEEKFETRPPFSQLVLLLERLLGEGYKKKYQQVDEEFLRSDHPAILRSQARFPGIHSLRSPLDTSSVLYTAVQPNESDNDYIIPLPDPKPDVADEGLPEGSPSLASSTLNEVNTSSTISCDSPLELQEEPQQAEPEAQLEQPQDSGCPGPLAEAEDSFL
Sequence of Fibroblast growth factor receptor 1 (P11362 whole entry): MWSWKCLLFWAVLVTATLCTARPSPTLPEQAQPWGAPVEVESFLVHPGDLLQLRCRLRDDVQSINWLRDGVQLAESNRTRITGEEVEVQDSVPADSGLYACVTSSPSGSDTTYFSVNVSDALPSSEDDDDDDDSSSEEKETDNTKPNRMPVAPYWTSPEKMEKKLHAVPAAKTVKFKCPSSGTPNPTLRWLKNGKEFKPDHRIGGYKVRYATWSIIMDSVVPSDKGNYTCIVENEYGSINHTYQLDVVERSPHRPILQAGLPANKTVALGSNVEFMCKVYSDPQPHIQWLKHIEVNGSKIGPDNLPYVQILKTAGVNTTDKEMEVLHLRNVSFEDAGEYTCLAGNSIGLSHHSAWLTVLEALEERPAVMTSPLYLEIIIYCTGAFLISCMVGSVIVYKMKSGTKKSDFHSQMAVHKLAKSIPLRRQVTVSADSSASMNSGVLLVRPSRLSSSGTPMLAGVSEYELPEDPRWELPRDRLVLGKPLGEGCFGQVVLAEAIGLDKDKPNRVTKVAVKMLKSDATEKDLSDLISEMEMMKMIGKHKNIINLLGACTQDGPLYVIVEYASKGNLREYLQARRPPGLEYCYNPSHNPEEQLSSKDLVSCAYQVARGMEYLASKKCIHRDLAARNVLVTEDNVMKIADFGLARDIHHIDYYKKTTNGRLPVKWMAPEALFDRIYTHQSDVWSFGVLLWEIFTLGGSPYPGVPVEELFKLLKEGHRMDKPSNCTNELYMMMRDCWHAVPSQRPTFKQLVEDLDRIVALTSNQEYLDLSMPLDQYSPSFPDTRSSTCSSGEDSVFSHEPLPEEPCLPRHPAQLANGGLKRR
Sequence of Vascular endothelial growth factor receptor 1 (P17948 whole entry): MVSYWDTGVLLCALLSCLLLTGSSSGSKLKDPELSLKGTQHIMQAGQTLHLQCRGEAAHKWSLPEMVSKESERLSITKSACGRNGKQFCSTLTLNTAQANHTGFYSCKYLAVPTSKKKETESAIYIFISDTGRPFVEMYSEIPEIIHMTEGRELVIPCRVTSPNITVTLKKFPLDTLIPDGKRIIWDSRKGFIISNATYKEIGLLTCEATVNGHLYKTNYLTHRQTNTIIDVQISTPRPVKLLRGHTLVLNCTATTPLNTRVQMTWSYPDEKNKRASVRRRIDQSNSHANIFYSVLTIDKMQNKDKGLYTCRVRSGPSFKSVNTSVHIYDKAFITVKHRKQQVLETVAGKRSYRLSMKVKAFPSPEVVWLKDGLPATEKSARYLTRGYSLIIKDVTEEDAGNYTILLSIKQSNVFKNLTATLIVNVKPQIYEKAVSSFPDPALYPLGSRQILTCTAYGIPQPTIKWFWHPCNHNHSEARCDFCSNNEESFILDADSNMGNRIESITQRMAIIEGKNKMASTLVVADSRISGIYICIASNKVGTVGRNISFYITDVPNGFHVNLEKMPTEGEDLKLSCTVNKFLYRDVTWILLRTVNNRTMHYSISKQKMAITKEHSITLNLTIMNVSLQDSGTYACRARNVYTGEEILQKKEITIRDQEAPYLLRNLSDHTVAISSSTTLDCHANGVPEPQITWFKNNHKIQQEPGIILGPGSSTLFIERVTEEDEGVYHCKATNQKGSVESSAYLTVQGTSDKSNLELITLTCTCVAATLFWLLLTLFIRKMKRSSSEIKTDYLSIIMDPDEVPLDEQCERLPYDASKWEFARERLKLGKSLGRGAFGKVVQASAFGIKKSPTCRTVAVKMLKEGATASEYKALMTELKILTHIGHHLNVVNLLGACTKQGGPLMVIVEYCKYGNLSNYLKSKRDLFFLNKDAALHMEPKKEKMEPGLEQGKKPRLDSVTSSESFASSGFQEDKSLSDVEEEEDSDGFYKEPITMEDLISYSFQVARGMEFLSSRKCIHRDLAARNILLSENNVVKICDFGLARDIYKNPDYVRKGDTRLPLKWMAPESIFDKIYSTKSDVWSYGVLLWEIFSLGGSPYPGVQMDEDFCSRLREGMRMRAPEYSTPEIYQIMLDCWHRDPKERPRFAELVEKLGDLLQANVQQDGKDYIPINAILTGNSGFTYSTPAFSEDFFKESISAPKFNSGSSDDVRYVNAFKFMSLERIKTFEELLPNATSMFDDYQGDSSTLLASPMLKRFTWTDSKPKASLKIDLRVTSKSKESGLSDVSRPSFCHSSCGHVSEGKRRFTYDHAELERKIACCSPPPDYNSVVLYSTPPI
Sequence of Vascular endothelial growth factor receptor 2 (P35918 whole entry): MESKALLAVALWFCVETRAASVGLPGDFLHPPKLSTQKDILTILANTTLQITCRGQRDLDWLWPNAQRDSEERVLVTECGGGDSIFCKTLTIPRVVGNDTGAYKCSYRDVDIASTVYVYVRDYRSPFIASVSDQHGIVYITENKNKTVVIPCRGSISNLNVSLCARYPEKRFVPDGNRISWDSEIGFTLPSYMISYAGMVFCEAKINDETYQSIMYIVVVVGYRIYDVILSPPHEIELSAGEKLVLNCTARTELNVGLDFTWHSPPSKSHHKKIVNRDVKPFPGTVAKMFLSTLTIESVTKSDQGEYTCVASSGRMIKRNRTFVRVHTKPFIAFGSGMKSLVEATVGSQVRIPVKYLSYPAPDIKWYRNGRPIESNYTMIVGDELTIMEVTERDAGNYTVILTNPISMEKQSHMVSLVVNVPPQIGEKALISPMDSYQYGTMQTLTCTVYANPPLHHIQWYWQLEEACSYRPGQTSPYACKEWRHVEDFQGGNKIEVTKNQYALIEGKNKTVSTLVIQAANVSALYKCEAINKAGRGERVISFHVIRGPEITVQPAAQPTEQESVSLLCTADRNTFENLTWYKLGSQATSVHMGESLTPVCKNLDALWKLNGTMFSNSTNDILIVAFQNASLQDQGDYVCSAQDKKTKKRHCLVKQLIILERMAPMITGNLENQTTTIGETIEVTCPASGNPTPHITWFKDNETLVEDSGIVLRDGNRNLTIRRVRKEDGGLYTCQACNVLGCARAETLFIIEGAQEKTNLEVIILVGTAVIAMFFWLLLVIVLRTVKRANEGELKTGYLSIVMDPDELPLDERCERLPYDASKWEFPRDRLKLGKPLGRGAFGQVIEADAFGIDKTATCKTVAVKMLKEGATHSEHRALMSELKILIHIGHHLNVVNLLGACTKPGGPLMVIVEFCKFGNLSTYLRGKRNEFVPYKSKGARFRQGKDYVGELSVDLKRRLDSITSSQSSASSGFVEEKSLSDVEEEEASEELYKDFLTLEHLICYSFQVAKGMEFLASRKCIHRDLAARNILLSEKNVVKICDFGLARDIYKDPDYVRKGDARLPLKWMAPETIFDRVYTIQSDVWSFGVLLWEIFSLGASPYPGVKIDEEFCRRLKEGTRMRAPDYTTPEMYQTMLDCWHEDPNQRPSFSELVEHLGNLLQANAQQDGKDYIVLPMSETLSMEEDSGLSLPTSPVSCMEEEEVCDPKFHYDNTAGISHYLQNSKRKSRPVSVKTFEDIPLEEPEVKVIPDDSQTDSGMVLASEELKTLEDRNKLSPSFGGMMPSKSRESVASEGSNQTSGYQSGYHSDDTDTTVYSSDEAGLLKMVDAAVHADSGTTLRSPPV

| Vd [6] [L/kg] | clearance [8] [mL/min/kg] | AUC [10] [ng·h/mL] | bioavailability [11] [%] | half-life [12] [h] | Compound | EC50 [1] [nM] | IC50 [2] [nM] | IC50 [3] [nM] | IC50 [4] [nM] | IC50 [5] [nM] | inhibition in vivo at 100 mg/kg [7] [%] | inhibition in vivo at 30 mg/kg [9] [%] |
| --- | --- | --- | --- | --- | --- | --- | --- | --- | --- | --- | --- | --- |
| – | – | – | – | – | Nc1c(-c2nc3ccccc3[nH]2)c(=O)[nH]c2ccccc12 | 78 | – | – | – | – | – | – |
| – | – | – | – | – | c1ccc(Oc2ccc3n[nH]c(-c4nc5cc(N6CCC(N7CCCCC7)CC6)ccc5[nH]4)c3c2)cc1 | 80 | 8 | 44 | 15 | 28 | – | – |
| – | – | – | – | – | c1ccc2c(-c3nc4cc(OCCCN5CCCC5)ccc4[nH]3)[nH]nc2c1 | 270 | 440 | 170 | 98 | 48 | – | – |
| – | – | – | – | – | CC(C)(C)NC(=O)Nc1cccc2c(-c3nc4cc(N5CCC(N6CCCCC6)CC5)ccc4[nH]3)[nH]nc12 | – | > 3000 | > 3000 | > 3000 | > 3000 | – | – |
| – | – | – | – | – | Fc1cccc2c(-c3nc4ccc(N5CCC(N6CCCCC6)CC5)cc4[nH]3)n[nH]c12 | 1400 | 2300 | 330 | 200 | 150 | – | – |
| – | – | – | – | – | c1ccc2c(-c3nc4ccc(N5CCC(N6CCCCC6)CC5)cc4[nH]3)n[nH]c2c1 | 97 | 690 | 78 | 48 | 28 | – | – |
| – | – | – | – | – | c1ccc2c(-c3nc4c(N5CCOCC5)cccc4[nH]3)n[nH]c2c1 | > 10000 | > 3000 | > 3000 | 830 | > 3000 | – | – |
| – | – | – | – | – | c1ccc(COc2ccc3[nH]nc(-c4nc5ccc(N6CCC(N7CCCCC7)CC6)cc5[nH]4)c3c2)cc1 | 190 | 83 | 30 | 8 | 3 | – | – |
| – | – | – | – | – | CC(C)(C)NC(=O)Nc1cccc2[nH]nc(-c3nc4cc(N5CCC(N6CCCCC6)CC5)ccc4[nH]3)c12 | 240 | 440 | 70 | 3 | 4 | – | – |
| – | – | – | – | – | COC(=O)c1ccc2[nH]nc(-c3nc4ccc(N5CCC(N6CCCCC6)CC5)cc4[nH]3)c2c1 | 130 | 63 | 31 | 73 | 15 | – | – |
| – | – | – | – | – | FC(F)(F)c1ccc2c(-c3nc4ccc(N5CCC(N6CCCCC6)CC5)cc4[nH]3)n[nH]c2c1 | 4 | 62 | 52 | – | – | – | – |
| – | – | – | – | – | c1ccc2c(-c3nc4cc(-n5ccnc5)ccc4[nH]3)n[nH]c2c1 | 7000 | 1400 | 83 | 210 | 96 | – | – |
| – | – | – | – | – | c1cc2[nH]nc(-c3nc4ccc(N5CCC(N6CCCCC6)CC5)cc4[nH]3)c2cc1NCC1CCCCC1 | 220 | 1700 | 44 | 16 | 21 | – | – |
| – | – | – | – | – | CC(C)(C)NC(=O)Nc1ccc2[nH]nc(-c3nc4ccc(N5CCC(N6CCCCC6)CC5)cc4[nH]3)c2c1 | 350 | 81 | 5 | – | – | – | – |
| – | – | – | – | – | c1ccc2c(-c3nc4ccc(N5CCOCC5)cc4[nH]3)n[nH]c2c1 | 160 | 260 | 160 | 100 | 50 | – | – |
| – | – | – | – | – | CN1CCC(N(C)c2ccc3nc(-c4n[nH]c5ccccc45)[nH]c3c2)CC1 | 220 | 500 | 150 | 18 | 8 | – | – |
| – | – | – | – | – | CN1CCN(Cc2ccc3[nH]c(-c4[nH]nc5ccccc45)nc3c2)CC1 | 300 | 1900 | 260 | 270 | 170 | – | – |
| – | – | – | – | – | c1ccc(COc2cccc3[nH]nc(-c4nc5cc(N6CCC(N7CCCCC7)CC6)ccc5[nH]4)c23)cc1 | 460 | 1800 | 660 | 94 | 63 | – | – |
| 24.8 | 71 | 2830 | 62 | 4.22 | Fc1ccc2c(-c3nc4cc(N5CCC(N6CCCCC6)CC5)ccc4[nH]3)[nH]nc2c1 | 33 | 310 | 28 | 28 | 10 | 88 | 50 |
| – | – | – | – | – | c1ccc(COc2cccc3c(-c4nc5cc(N6CCC(N7CCCCC7)CC6)ccc5[nH]4)[nH]nc23)cc1 | 1800 | > 3000 | > 3000 | > 3000 | > 3000 | – | – |
| – | – | – | – | – | CN1CCN(c2ccc3[nH]c(-c4[nH]nc5ccccc45)nc3c2)CC1 | 97 | 170 | 130 | 82 | 44 | – | – |
| – | – | – | – | – | c1ccc(COc2ccc3c(-c4nc5ccc(N6CCC(N7CCCCC7)CC6)cc5[nH]4)n[nH]c3c2)cc1 | 220 | 180 | 21 | 23 | 11 | – | – |
| – | – | – | – | – | c1ccc2[nH]c(-c3n[nH]c4ccccc34)nc2c1 | 5900 | 3400 | 3300 | 1400 | 720 | – | – |

From ChEMBL document CHEMBL1138908, “Design and structure-activity relationship of 3-benzimidazol-2-yl-1H-indazoles as inhibitors of receptor tyrosine kinases” (Bioorg Med Chem Lett, 2006)
